Assay results taken from US20140031217A1, “HERBICIDAL COMPOSITIONS COMPRISING 4-AMINO-3-CHLORO-5-FLUORO-6-(4-CHLORO-2-FLUORO-3-METHOXYPHENYL)PYRIDINE-2-CARBOXYLIC ACID OR A DERIVATIVE THEREOF AND AUXIN TRANSPORT INHIBITORS” (DOW AGROSCIENCES LLC, priority 2012, published 2014).

Legend:
[1] = tested on: CYPIR; assay: Postemergence foliar-applied greenhouse weed control, CYPIR; type: in vivo, Cyperus iria L.; conditions: 20 DAA
Description: (§1) Seeds or nutlets of the desired test plant species were planted in a soil matrix prepared by mixing a loam or sandy loam soil (e.g., 28.6 percent silt, 18.8 percent clay, and 52.6 percent sand, with a pH of about 5.8 and an organic matter content of about 1.8 percent) and calcareous grit in an 80 to 20 ratio. The soil matrix was contained in plastic pots with a volume of 1 quart and a surface area of 83.6 square centimeters (cm^2). When required to ensure good germination and healthy plants, a fungicide treatment and/or other chemical or physical treatment was applied. The plants were grown for 8-22 days in a greenhouse with an approximate 14 h photoperiod which was maintained at about 29° C. during the day and 26° C. during the night. Nutrients (Peters Excel® 15-5-15 5-Ca 2-Mg and iron chelate) were applied in the irrigation solution as needed and water was added on a regular basis. Supplemental lighting was provided with overhead metal halide 1000-Watt lamps as necessary. The plants were employed for testing when they reached the first through fourth true leaf stage.
(§2) Treatments consisted of the acid or esters of 4-amino-3-chloro-5-fluoro-6-(4-chloro-2-fluoro-3-methoxy-phenyl) pyridine-2-carboxylic acid (Compound A), each formulated as an SC (suspension concentrate), and various herbicidal components alone and in combination. Forms of compound A were applied on an acid equivalent basis.
(§3) Other herbicidal components were applied on an active ingredient basis and included auxin transport inhibiting (ATI) herbicides chlorflurenol (technical material), chlorflurenol-methyl (technical material), diflufenzopyr (technical material), diflufenzopyr sodium (technical material), flurenol-methyl (technical material) and naptalam (technical material).
(§4) Treatment requirements were calculated based upon the rates being tested, the concentration of active ingredient or acid equivalent in the formulation, and a 12 mL application volume at a rate of 187 L/ha.
(§5) For treatments comprised of formulated and technical compounds, weighed amounts of the technical materials were placed individually in 25 mL glass vials and dissolved in a volume of 97:3 v/v acetone/DMSO to obtain 12× stock solutions, and measured amounts of the formulated compounds were placed individually in 25 mL glass vials and diluted in a volume of 1.5% (v/v) crop oil concentrate or water to obtain 12× stock solutions. […] Application solutions were prepared by adding an appropriate amount of each stock solution (e.g., 1 mL) and diluted to the appropriate final concentrations with the addition of an appropriate amount of an aqueous mixture of 1.5% (v/v) crop oil concentrate so that the final spray solutions contained 1.25% (v/v) crop oil concentrate. When required, additional water and/or 97:3 v/v acetone/DMSO was added to individual application solutions so that the final acetone and DMSO concentrations of the application solutions being compared were 8.1% and 0.25%, respectively.
(§6) All stock solutions and applications solutions were visually inspected for compound compatibility prior to application. Spray solutions were applied to the plant material with an overhead Mandel track sprayer equipped with an 8002E nozzle calibrated to deliver 187 L/ha over an application area of 0.503 m^2 at a spray height of 18 to 20 inches (46 to 50 cm) above average plant canopy height. Control plants were sprayed in the same manner with the solvent blank.
(§7) The treated plants and control plants were placed in a greenhouse as described above and watered by sub-irrigation to prevent wash-off of the test compounds. After approximately 3 weeks, the condition of the test plants as compared with that of the untreated plants was determined visually and scored on a scale of 0 to 100 percent where 0 corresponds to no injury or growth inhibition and 100 corresponds to complete kill. […]

[2] = tested on: DIGSA; assay: Postemergence foliar-applied greenhouse weed control, DIGSA; type: in vivo, Digitaria sanguinalis (L.) Scop.; conditions: 20 DAA
Description: as §1, §2, §3, §4, §5, §6, §7

[3] = tested on: ECHCG; assay: Postemergence foliar-applied greenhouse weed control, ECHCG; type: in vivo, Echinochloa crusgalli (L.) Beauv.; conditions: 20 DAA
Description: as §1, §2, §3, §4, §5, §6, §7

[4] = tested on: ECHCO; assay: Postemergence foliar-applied greenhouse weed control, ECHCO; type: in vivo, Echinochloa colona (L.) Link; conditions: 20 DAA
Description: as §1, §2, §3, §4, §5, §6, §7

[5] = tested on: IPOHE; assay: Postemergence foliar-applied greenhouse weed control, IPOHE; type: in vivo, Ipomoea hederacea Jacq.; conditions: 20 DAA
Description: as §1, §2, §3, §4, §5, §6, §7

[6] = tested on: LEFCH; assay: Postemergence foliar-applied greenhouse weed control, LEFCH; type: in vivo, Leptochloa chinensis (L.) Nees; conditions: 20 DAA
Description: as §1, §2, §3, §4, §5, §6, §7

[7] = tested on: ECHCG; assay: In-water applied (paddy) greenhouse weed control, ECHCG; type: in vivo, Echinochloa crusgalli (L.) Beauv.
Method: (§8) Weed seeds or nutlets of the desired test plant species were planted in puddled soil (mud) prepared by mixing a shredded, non-sterilized mineral soil (50.5 percent silt, 25.5 percent clay, and 24 percent sand, with a pH of about 7.6 and an organic matter content of about 2.9 percent) and water at a 1:1 volumetric ratio. The prepared mud was dispensed in 365 mL aliquots into 16-ounce (oz.) non-perforated plastic pots with a surface area of 86.59 square centimeters (cm^2) leaving a headspace of 3 centimeters (cm) in each pot. Mud was allowed to dry overnight prior to planting or transplanting. Rice seeds were planted in Sun Gro MetroMix® 306 planting mixture, which typically has a pH of 6.0 to 6.8 and an organic matter content of about 30 percent, in plastic plug trays. Seedlings at the second or third leaf stage of growth were transplanted into 840 mL of mud contained in 32-oz. non-perforated plastic pots with a surface area of 86.59 cm^2 4 days prior to herbicide application. The paddy was created by filling the headspace of the pots with 2.5 to 3 cm of water. When required to ensure good germination and healthy plants, a fungicide treatment and/or other chemical or physical treatment was applied. The plants were grown for 4-22 days in a greenhouse with an approximate 14 h photoperiod which was maintained at about 29′C during the day and 26° C. during the night. Nutrients were added as Osmocote® (19:6:12, N:P:K+minor nutrients) at 2 g per 16-oz. pot and 4 g per 960-mL 32-oz. pot. Water was added on a regular basis to maintain the paddy flood, and supplemental lighting was provided with overhead metal halide 1000-Watt lamps as necessary. The plants were employed for testing when they reached the second or third true leaf stage.
(§9) Treatments consisted of the acid or esters of 4-amino-3-chloro-5-fluoro-6-(4-chloro-2-fluoro-3-methoxy-phenyl)pyridine-2-carboxylic acid (compound A) each formulated as an SC and various herbicidal components alone and in combination. Forms of compound A were applied on an acid equivalent basis.
(§10) Other herbicidal components were applied on an active ingredient basis and included auxin transport inhibiting (ATI) herbicides chlorflurenol-methyl (technical material), chlorflurenol (technical material), diflufenzopyr (technical material), dilfufenzopyr sodium (technical material), flurenol-methyl (technical material,) and naptalam (technical material).
(§11) Treatment requirements for each compound or herbicidal component were calculated based upon the rates being tested, the concentration of active ingredient or acid equivalent in the formulation, an application volume of 2 mL per component per pot, and an application area of 86.59 cm^2 per pot.
(§12) For formulated compounds, a measured amount was placed in an individual 100 or 200 mL glass vial and was dissolved in a volume of 1.25% (v/v) Agri-Dex® crop oil concentrate to obtain application solutions.
(§13) For technical grade compounds, a weighed amount was placed in an individual 100 to 200 mL glass vial and was dissolved in a volume of acetone to obtain concentrated stock solutions. […] The concentrated stock solutions obtained were diluted with an equivalent volume of an aqueous mixture containing 2.5% (v/v) crop oil concentrate so that the final application solutions contained 1.25% (v/v) crop oil concentrate.
(§14) Applications were made by injecting with a pipetter appropriate amounts of the application solutions, individually and sequentially, into the aqueous layer of the paddy. Control plants were treated in the same manner with the solvent blank. Applications were made so that all treated plant material received the same concentrations of acetone and crop oil concentrate.
(§15) The treated plants and control plants were placed in a greenhouse as described above and water was added as needed to maintain a paddy flood. […]

[8] = tested on: ECHOR; assay: In-water applied (paddy) greenhouse weed control, ECHOR; type: in vivo, Echinochloa oryzoides (Ard.) Fritsch
Method: as §8, §9, §10, §11, §12, §13, §14, §15

[9] = tested on: LEFCH; assay: In-water applied (paddy) greenhouse weed control, LEFCH; type: in vivo, Leptochloa chinensis (L.) Nees; conditions: 20 DAA
Method: as §8, §9, §10, §11, §12, §13, §14, §15

[10] = tested on: SCPMA; assay: In-water applied (paddy) greenhouse weed control, SCPMA; type: in vivo
Method: as §8, §9, §10, §11, §12, §13, §14, §15

[11] = tested on: CYPRO; assay: In-water applied (paddy) greenhouse weed control, CYPRO; type: in vivo, Cyperus rotundus L.; conditions: 19 DAA
Method: as §8, §9, §10, §11, §12, §13, §14, §15

[12] = tested on: FIMMI; assay: In-water applied (paddy) greenhouse weed control, FIMMI; type: in vivo, Fimbristylis miliacea (L.) Vahl; conditions: 19 DAA
Method: as §8, §9, §10, §11, §12, §13, §14, §15

COC(=O)C1(O)c2ccccc2-c2ccc(Cl)cc21 (centres unmarked) [Chlorflurenol-Methyl, methyl 2-chloro-9-hydroxy-9H-fluorene-9-carboxylate, reference compound]
Visual Weed Control (%) Obs ([1]; 68.75 gai/ha): 0% | Visual Weed Control (%) Obs ([1]; 137.5 gai/ha): 0% | Visual Weed Control (%) Obs ([1]; 275 gai/ha): 0% | Visual Weed Control (%) Obs ([2]; 68.75 gai/ha): 0% | Visual Weed Control (%) Obs ([2]; 137.5 gai/ha): 0% | Visual Weed Control (%) Obs ([2]; 275 gai/ha): 0% | Visual Weed Control (%) Obs ([3]; 68.75 gai/ha): 0% | Visual Weed Control (%) Obs ([3]; 137.5 gai/ha): 0% | Visual Weed Control (%) Obs ([3]; 275 gai/ha): 0% | Visual Weed Control (%) Obs ([4]; 68.75 gai/ha): 0% | Visual Weed Control (%) Obs ([4]; 137.5 gai/ha): 0% | Visual Weed Control (%) Obs ([4]; 275 gai/ha): 0% | Visual Weed Control (%) Obs ([5]; 137.5 gai/ha): 50% | Visual Weed Control (%) Obs ([5]; 275 gai/ha): 55% | Visual Weed Control (%) Obs ([6]; 68.75 gai/ha): 0% | Visual Weed Control (%) Obs ([6]; 137.5 gai/ha): 10% | Visual Weed Control (%) Obs ([6]; 275 gai/ha): 10% | Visual Weed Control (%) Obs ([7]; 20 DAA, 275 gai/ha): 15% | Visual Weed Control (%) Obs ([7]; 20 DAA, 550 gai/ha): 20% | Visual Weed Control (%) Obs ([8]; 20 DAA, 275 gai/ha): 20% | Visual Weed Control (%) Obs ([8]; 20 DAA, 550 gai/ha): 10% | Visual Weed Control (%) Obs ([9]; 275 gai/ha): 0% | Visual Weed Control (%) Obs ([9]; 550 gai/ha): 0% | Visual Weed Control (%) Obs ([10]; 20 DAA, 275 gai/ha): 75% | Visual Weed Control (%) Obs ([10]; 20 DAA, 550 gai/ha): 80%

C/C(=N\NC(=O)Nc1cc(F)cc(F)c1)c1ncccc1C(=O)O [Diflufenzopyr sodium]
Visual Weed Control (%) Obs ([11]; 17.5 gai/ha): 0% | Visual Weed Control (%) Obs ([11]; 35 gai/ha): 0% | Visual Weed Control (%) Obs ([11]; 70 gai/ha): 10% | Visual Weed Control (%) Obs ([7]; 19 DAA, 17.5 gai/ha): 20% | Visual Weed Control (%) Obs ([7]; 19 DAA, 35 gai/ha): 50% | Visual Weed Control (%) Obs ([7]; 19 DAA, 70 gai/ha): 20% | Visual Weed Control (%) Obs ([12]; 17.5 gai/ha): 50% | Visual Weed Control (%) Obs ([12]; 35 gai/ha): 55% | Visual Weed Control (%) Obs ([12]; 70 gai/ha): 60%

O=C(O)C1(O)c2ccccc2-c2ccc(Cl)cc21 (centres unmarked) [Chlorflurenol, reference compound]
Visual Weed Control (%) Obs ([7]; 22 DAA, 275 gai/ha): 10% | Visual Weed Control (%) Obs ([8]; 22 DAA, 550 gai/ha): 30% | Visual Weed Control (%) Obs ([10]; 22 DAA, 275 gai/ha): 45% | Visual Weed Control (%) Obs ([10]; 22 DAA, 550 gai/ha): 60%
